Data published in ChEMBL document CHEMBL1201862, “PubChem BioAssay data set” (2004).
Activity calls are given as the source filed them.

How the values were obtained:
[1] = T. cruzi growth inhibition in host cells, dose response, cell-based, plate reader, dry powder, set 2 (AID 652275); format: functional
[2] = growth inhibition of intracellular T. cruzi, dose response, cell-based, plate reader, dry powder samples (AID 651845); format: functional
[3] = T. cruzi intracellular amastigote growth inhibition, dose response, imaging, CA-I/72 strain, bovine embryo skeletal muscle, dry powder (AID 651885); format: functional, cell-based
[4] = TRPM1 promoter luciferase reporter signal decrease, dose response, MITF inhibitor project, cell-based, SK-MEL-5, dry powder, set 9 (AID 651588); format: functional
[5] = A375 melanoma cell viability loss, dose response, counter-screen for MITF inhibitor project, CellTiter-Glo luminescence, dry powder, set 4 (AID 624364); format: functional, cell-based; details: A-375;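 note: A375 melanoma cells are MITF independent so this is a counter screen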
[6] = A375 melanoma cell cytotoxicity, dose response, counter-screen for MITF inhibitor project, CellTiter-Glo luminescence, dry powder, set 7 (AID 624490); format: functional, cell-based; details: A-375
[7] = MITF Orthogonal Assay: MALME3 CTG Assay Measured in Cell-Based System Using Plate Reader - 2084-04_Inhibitor_Dose_DryPowder_Activity_Set6.; format: functional; details: MALME-3
[8] = SK-MEL-5 parental cell viability reduction, dose response, orthogonal assay for MITF inhibitor project, CellTiter-Glo luminescence, dry powder, set 8 (AID 651586); format: functional, cell-based
[9] = MALME3 melanoma cell viability reduction, dose response, orthogonal assay for MITF inhibitor project, CellTiter-Glo luminescence, dry powder, set 5 (AID 651584); format: functional, cell-based; details: MALME-3
[10] = SK-MEL-5 parental line viability, dose response, MITF inhibitor project, cell-based, CellTiter-Glo, dry powder, set 6 (AID 624429); format: functional
[11] = MITF Orthogonal Assay: SK-MEL-5 CTG Assay Measured in Cell-Based System Using Plate Reader - 2084-02_Inhibitor_Dose_DryPowder_Activity_Set5.; format: functional
[12] = A375 melanoma cell cytotoxicity, dose response, counter-screen for MITF inhibitor project, CellTiter-Glo luminescence, dry powder, set 6 (AID 624488); format: functional, cell-based; details: A-375
[13] = A375 melanoma cell viability loss, dose response, counter-screen for MITF modulator project, CellTiter-Glo luminescence, dry powder, set 9 (AID 651591); format: functional, cell-based; details: A-375
[14] = MITF Measured in Cell-Based System Using Plate Reader - 2084-01_Inhibitor_Dose_DryPowder_Activity_Set6.; format: functional
[15] = MITF Measured in Cell-Based System Using Plate Reader - 2084-01_Inhibitor_Dose_DryPowder_Activity_Set7.; format: functional
[16] = cytotoxicity in primary human melanocytes, dose response, cytotoxicity control, cell-based, plate reader, dry powder (AID 651920); format: functional
Phospholipase D2 = Phospholipase D2 (Homo sapiens, UniProt O14939); experiment: PLD2 Cellular Concentration Response Study.; format: functional
Phospholipase D2, sequence (O14939 whole entry): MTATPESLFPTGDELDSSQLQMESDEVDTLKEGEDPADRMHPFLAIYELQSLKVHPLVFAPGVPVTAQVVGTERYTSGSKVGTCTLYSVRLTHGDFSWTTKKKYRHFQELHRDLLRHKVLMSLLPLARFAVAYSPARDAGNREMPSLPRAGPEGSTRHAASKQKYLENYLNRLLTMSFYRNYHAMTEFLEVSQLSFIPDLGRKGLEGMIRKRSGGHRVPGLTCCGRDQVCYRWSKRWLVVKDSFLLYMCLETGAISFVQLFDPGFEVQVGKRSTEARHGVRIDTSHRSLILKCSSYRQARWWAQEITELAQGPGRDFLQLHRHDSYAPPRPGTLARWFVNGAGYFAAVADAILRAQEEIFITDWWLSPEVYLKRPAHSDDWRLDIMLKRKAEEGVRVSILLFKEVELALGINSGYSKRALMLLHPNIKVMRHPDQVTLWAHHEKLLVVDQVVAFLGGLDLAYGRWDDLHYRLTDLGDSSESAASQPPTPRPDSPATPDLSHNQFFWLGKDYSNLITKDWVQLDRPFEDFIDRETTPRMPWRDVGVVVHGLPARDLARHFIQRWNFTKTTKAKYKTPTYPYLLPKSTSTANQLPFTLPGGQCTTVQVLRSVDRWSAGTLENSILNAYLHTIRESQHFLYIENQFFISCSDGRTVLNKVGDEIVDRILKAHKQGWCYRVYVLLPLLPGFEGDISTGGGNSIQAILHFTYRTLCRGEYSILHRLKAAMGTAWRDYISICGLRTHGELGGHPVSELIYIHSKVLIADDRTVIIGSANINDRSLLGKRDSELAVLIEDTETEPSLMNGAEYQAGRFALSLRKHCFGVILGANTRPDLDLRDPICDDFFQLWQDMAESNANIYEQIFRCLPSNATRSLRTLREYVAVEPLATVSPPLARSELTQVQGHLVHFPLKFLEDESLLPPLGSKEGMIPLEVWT

Phospholipase D1 = Phospholipase D1 (Homo sapiens, UniProt Q13393); experiment: PLD1 Cellular Concentration Response Study.; format: functional
Phospholipase D1, sequence (Q13393 whole entry): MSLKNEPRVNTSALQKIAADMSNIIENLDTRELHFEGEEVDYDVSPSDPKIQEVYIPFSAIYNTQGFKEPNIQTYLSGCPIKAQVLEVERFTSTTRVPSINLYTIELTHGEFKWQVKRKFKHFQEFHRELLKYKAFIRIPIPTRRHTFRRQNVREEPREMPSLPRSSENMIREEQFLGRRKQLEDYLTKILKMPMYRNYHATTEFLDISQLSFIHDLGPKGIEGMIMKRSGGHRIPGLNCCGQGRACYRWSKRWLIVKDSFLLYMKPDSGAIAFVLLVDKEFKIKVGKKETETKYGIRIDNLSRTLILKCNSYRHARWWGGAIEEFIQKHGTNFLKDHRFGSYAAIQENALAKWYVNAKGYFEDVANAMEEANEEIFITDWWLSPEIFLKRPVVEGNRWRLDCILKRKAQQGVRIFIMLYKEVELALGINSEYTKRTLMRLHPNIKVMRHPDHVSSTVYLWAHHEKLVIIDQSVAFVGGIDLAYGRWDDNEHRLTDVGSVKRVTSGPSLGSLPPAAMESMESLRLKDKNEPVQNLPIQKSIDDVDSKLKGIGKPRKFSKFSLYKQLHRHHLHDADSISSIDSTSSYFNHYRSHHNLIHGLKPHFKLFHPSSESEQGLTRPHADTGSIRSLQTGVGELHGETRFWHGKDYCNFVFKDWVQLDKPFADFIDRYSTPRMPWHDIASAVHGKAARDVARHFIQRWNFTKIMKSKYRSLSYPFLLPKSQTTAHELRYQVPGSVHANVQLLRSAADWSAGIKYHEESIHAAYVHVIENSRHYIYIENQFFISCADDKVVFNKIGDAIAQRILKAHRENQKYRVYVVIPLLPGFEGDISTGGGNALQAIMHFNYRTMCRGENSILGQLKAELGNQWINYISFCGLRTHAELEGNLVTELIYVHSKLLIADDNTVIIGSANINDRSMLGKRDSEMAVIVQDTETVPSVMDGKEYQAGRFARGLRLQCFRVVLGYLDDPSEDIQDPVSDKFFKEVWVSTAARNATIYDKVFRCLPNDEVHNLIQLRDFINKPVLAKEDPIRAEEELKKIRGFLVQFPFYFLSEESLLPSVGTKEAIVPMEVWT

[17] = P. falciparum 3D7-ScDHODH growth inhibitors, dose response, SYBR Green, dry powder samples (AID 1159570); format: functional, cell-based;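 note: parasite growth measured after 72 hours of compound exposure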
[18] = P. falciparum Dd2 growth inhibitors, dose response, SYBR Green, cherry-picked samples (AID 1159567); format: functional, cell-based
[19] = P. falciparum Dd2 growth inhibitors, dose response, SYBR Green, dry powder samples (AID 1159566); format: functional, cell-based;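 note: potency for growth inhibition with lower SYBR green DNA signal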
[20] = P. falciparum ATP4 D1247Y mutant growth inhibitors, dose response, NITD609-resistant line, SYBR Green, dry powder (AID 1159571); format: functional, cell-based;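 note: parasites synchronized at ring stage by sorbitol before testing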

## CC(C)N1C[C@H](C)[C@@H](CN(C)Cc2ccccc2)Oc2c(NC(=O)c3ccncc3)cccc2C1=O
[1]
  AC50: 0.00035 µM (active)
[2]
  AC50: 0.00035 µM (active)
[3]
  IC50: 0.0026 µM (active)

## COC1=C(NS(=O)(=O)c2cccs2)C(=O)c2ccccc2C1=O
[4]
  AC50: 26.3 µM (active)
[5]
  AC50: > 70 µM (inactive)
[6]
  AC50: > 70 µM (inactive)
[7]
  AC50: 38 µM (active)
[8]
  AC50: 21 µM (active)
[9]
  AC50: 38 µM (active)
[10]
  AC50: 20.2 µM (active)
[11]
  AC50: 19.1 µM (active)
[12]
  AC50: 64.7 µM (active)
[13]
  AC50: > 70 µM (inactive)
[14]
  AC50: 13.2 µM (active)
[15]
  AC50: 12.3 µM (active)
[16]
  AC50: 64.3 µM (active)

## O=C(NCCN1CCC2(CC1)C(=O)NCN2Cc1cccnc1)c1cc2cc(F)ccc2[nH]1
Phospholipase D2
  IC50: 0.12 µM (active)
Phospholipase D1
  IC50: 3.15 µM (active)

## COc1ccc2c3c(n(C)c2c1)[C@@H](CO)N(C(=O)c1ccc(F)cc1)CC31CCN(C(=O)Nc2ccc(F)cc2)CC1
[17]
  AC50: 1.04 µM (active)
[18]
  AC50: 1.89 µM (active)
[19]
  AC50: 0.795 µM (active)
[20]
  AC50: 1.06 µM (active)
